# Measured values published in patent US20030232851A1, “Viral treatment” (The Procter & Gamble Company, priority 1999, published 2003).
# Read-outs that look alike come from different tables or passages of the source.
# Tested on: HIV-1 cell line, CEMRF
# Type: cell-based
# Settings: for reverse transcriptase data: 7 μg/ml
# Protocol: A microtiter-based reveres transcriptase (RT) reaction is utilized (Buckheit et al (1991) AIDS Research and Human Retroviruses 7:295-302). Tritiated thymidine triphosphate (NEN)(TTP) is resuspended in distilled water at 5 Ci/ml. Poly rA and oligo dT are prepared as a stock solution which is kept at −20° C. The RT reaction buffer is prepared fresh on a daily basis and consists of 125 μl 1M EGTA, 125 μl water, 125 μl Triton X-100, 50 μl Tris (pH 7.4), 50 μl 1 MDDT, and 40 μl 1M MgCl2. These three solutions are mixed together in a ratio of 1 part TTP, 2.5 parts poly rA:oligo dT, 2.5 parts reaction buffer and 4 parts distilled water. Ten microliters of this reaction mixture is placed in a round bottom microtiter place and 15 μl of virus containing supernatant is added and mixed. The plate is incubated at 37° C. for 60 minutes. Following reaction, the reaction volume is spotted onto filter mats, washed 6 times for 5 minutes each in a 5% sodium phosphate buffer, 2 times for 1 minute each in distilled water, 2 times for 1 minute each in 70% ethanol, and then dried. The dried filter mat is placed in a plastic sample bag, Betaplate scintillation fluid is added and the bag is heat sealed. Incorporated radioactivity is quantified utilizing a Wallac Microbeta scintillation counter.
# Acute infection of most established human cell lines with HIV-1 results in the eventual establishment of a constitutive virus-producing chronically infected cell line. The cells can be passaged for long periods of time in culture without loss of virus production. These cells may be utilized to evaluate the effects of anti-HIV compounds on syncytium formation or to evaluate the effects of anti-HIV compounds on levels of virus production from these cells. […] Each of the cells contains an integrated HIV genome or provirus. Chronically infected CEM, H9 and U937 cell lines have been prepared and cultured by Southern Research Institute, Frederick Md. and are available from them.
# CEM-SS cells chronically infected with HIV isolate, for example SKI (CEM-SKI) are cultured in RPMI1640 tissue culture medium supplemented with 10% fetal bovine serum and antibiotics. Selection is performed by culturing the cells in the presence of the compound to be tested in T25 flasks. CEM-SKI or other infected cells with no added drug are used as the control cells. Cells are allowed to grow to a density of approximately 1×10^6 cells/ml and are then passaged at a 1:10 dilution. […] The drug concentration in the flask is then increased two-fold and the cells maintained as above.
# The cell populations contain integrated copies of the HIV genome and constitutively produce HIV at relatively high levels or are latently infected and only produce virus after stimulation with phorbol esters, tumor necrosis factor or IL6 (U1 and ACH2).
# A long term in vitro study of 2-(2-thienyl)-imidazolo [4,5-b]pyridine against an HIV-1 cell line, CEMRF, was conducted at three different levels. […] CEMRF is a chronic HIV cell line.
smiles,measurement,setting,value
"c1csc(-c2nc3cccnc3[nH]2)c1 [2-(2-thienyl)-imidazolo [4,5-b]pyridine]",reverse transcriptase data,day 4,6521
same,reverse transcriptase data,day 67,9241
same,reverse transcriptase data,day 71,8422
same,reverse transcriptase data,day 74,8643
same,resistance developing,by day 186 at the 15 and 30 μg/ml level,no indication of resistance developing
same,reverse transcriptase data on continuation (in words),run through 242 days,data remained consistent
